In PMC12519282, “Reduction of Negative Charge in Mercaptoacetyl-Based Chelators Influences the Biodistribution of Prostate-Specific Membrane Antigen-Targeting Pseudopeptides Labeled with Technetium-99m” (ACS Pharmacology & Translational Science, 2025):
Like-named read-outs stand apart in the source and are kept apart here. Marks after values point to notes of the source that are not given here.

Assays:
[1] = physchem; format: physicochemical; details: pH 7.4
Protocol: (§1) To evaluate the label’s stability, 10 μL (0.25 μg) of radiolabeled conjugates was incubated with 300× molar excess of cysteine or with PBS for 1 h at room temperature. The test was run in triplicate. The release of free technetium-99m was controlled by using iTLC and radio-HPLC analysis. The stability in serum was analyzed by mixing the radioconjugates (0.25 μg in 10 μL) with murine serum or PBS (40 μL) as a control. The samples were incubated for 1 h at 37 °C and analyzed by iTLC. The experiment was performed in triplicate. The octanol–water distribution coefficient (Log D) was determined experimentally by the addition of 100 pmol of the radiolabeled tracer to an Eppendorf tube containing PBS (500 μL) and n-octanol (500 μL), pH ∼ 7.4. The solution was vortexed and centrifuged, and aliquots (50 μL) from each phase were collected and measured using a gamma counter. The experiment was performed in triplicate.

[2] = target: T1, PSMA (Homo sapiens, UniProt Q04609); test: binding kinetics in real time on living PC3-pip cells (LigandTracer Yellow)
T1 construct: expressed in transfected cells; host or cells: PC3-pip (PSMA-transfected PC-3 prostate carcinoma cells), from Prof; Martin G. Pomper, Johns Hopkins University
Protocol: The binding kinetics of technetium-99m-labeled BQ0413, BQ0500, and BQ0501 were determined in PC3-pip cells in real-time using LigandTracer Yellow (Ridgeview Instruments AB, Uppsala, Sweden). The activity binding was recorded with 5 nM radiolabeled tracers for 150 min. After the binding kinetics were measured, the medium containing the labeled tracer was replaced with fresh medium, and the dissociation was monitored over 7 h. The association rate (k a) and the dissociation rate (k d) were computed using a 1:2 kinetic binding model in TraceDrawer software (Ridgeview Instruments AB, Uppsala, Sweden), and the equilibrium dissociation constant K D was calculated.

[3] = format: in vitro ADME, murine; details: 1 h
Protocol: as §1

[4] = test system: PC3-pip cells; test: cellular processing (membrane-bound / internalized activity); format: cell-based; details: 2 nM, continuous incubation, after 8 h
Protocol: To evaluate cellular processing of technetium-99m-labeled BQ0500 and BQ0501, PC3-pip cells were incubated with the radiolabeled tracer (2 nM), and at 1, 2, 4, and 8 h of continuous incubation, the membrane-bound and internalized fractions were collected as previously described using 4 M urea solution in 0.2 M glycine buffer (pH 2) to collect membrane-bound fraction and 1 N solution of NaOH to collect the internalized fraction. The activity in the samples was measured, and the percentage of membrane-bound and internalized activity was calculated. The experiments were performed in triplicate.

[5] = test system: PC3-pip xenografts; test: biodistribution and tumor targeting in PC3-pip tumor-bearing mice; format: in vivo
Source text: The injected masses for the in vivo experiments were chosen based on the findings for [^99mTc]-Tc-BQ0413: to study the general biodistribution of radiolabeled tracers in normal mice (NMRI), 40 pmol of tracer was used to avoid blocking of PSMA-mediated uptake in kidneys and salivary glands, to study tumor targeting, 5 nmol of tracer was used to decrease uptake in PSMA-expressing organs.
PSMA-expressing PCa xenografts were implanted in BALB/c nu/nu mice by subcutaneous injection of the PC3-pip cell suspension in PBS (10^7 cells/animal in 100 μL). The average animal weight in the experiment was 18 ± 2 g. The average tumor weight was 0.4 ± 0.2 g. For in vivo specificity control, 10^7 cells/animal PSMA-negative PC-3 cells were implanted. The average animal weight was 18 ± 1 g. The average tumor weight was 0.1 ± 0.1 g. Four mice per data point were used in the in vivo experiments.
For tumor-bearing mice, each mouse was intravenously injected with 5 nmol of [^99mTc]-Tc-BQ0413, [^99mTc]-Tc-BQ0500, and [^99mTc]-Tc-BQ0501 (60 kBq; the mass of the injected compound was adjusted with an unlabeled tracer). The mice were euthanized after lethal intraperitoneal injection of ketamine/xylazine, followed by exsanguination 1 and 3 h pi, similarly to the procedure described above.

[6] = test system: PC3-pip cells; test: in vitro binding specificity test; format: cell-based; details: 1 h, 37 °C
Protocol: For the in vitro binding specificity test, approximately 8 × 10^5 PC3-pip cells per well were seeded 24 h before the experiment. […] Technetium-99m-labeled tracers were added to each well to reach a concentration of 2 nM. After 1 h of incubation at 37 °C, cells were washed with PBS solution, detached, and collected. Cell-associated activity was measured using a gamma counter and presented as the percentage of added activity.

[7] = PC3-pip tumor-bearing mice, 5 nmol/mouse iv, 1 h pi
[8] = PC3-pip tumor-bearing mice, 5 nmol/mouse iv, 3 h pi
[9] = PC3-pip tumor-bearing mice, 5 nmol/mouse iv, 3 h pi, listed as [99mTc]Tc-BQ0500

T1 sequence (Q04609 whole entry): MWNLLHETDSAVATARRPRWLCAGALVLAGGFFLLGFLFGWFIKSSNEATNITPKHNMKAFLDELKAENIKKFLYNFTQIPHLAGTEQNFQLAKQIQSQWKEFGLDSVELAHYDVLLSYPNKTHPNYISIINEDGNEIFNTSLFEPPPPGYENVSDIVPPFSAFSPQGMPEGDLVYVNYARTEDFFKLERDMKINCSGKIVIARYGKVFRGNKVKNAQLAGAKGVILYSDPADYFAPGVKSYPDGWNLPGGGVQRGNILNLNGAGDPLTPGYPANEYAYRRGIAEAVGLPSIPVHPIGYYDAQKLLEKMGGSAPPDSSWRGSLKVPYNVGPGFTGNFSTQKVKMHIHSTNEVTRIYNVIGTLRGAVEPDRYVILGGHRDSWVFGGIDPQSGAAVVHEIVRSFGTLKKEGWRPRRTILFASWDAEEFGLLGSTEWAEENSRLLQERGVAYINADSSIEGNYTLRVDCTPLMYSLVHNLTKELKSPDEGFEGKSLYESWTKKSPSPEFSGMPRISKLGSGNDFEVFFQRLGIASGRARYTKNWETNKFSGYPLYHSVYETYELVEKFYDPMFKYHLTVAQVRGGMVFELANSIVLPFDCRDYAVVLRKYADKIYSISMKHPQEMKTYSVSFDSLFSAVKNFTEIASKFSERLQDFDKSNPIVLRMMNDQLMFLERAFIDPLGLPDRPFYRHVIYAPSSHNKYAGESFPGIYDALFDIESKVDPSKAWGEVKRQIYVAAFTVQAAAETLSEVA

With `CC(=O)NC(CCCCNC(=O)CNC(=O)C(CCC(=O)O)NC(=O)C(CO)NC(=O)C(CCC(=O)O)NC(=O)CS)C(=O)NCCCCCCCC(=O)NC(Cc1ccc(O)cc1)C(=O)NC(Cc1ccc2ccccc2c1)C(=O)NCCCCC(NC(=O)NC(CCC(=O)O)C(=O)O)C(=O)O` (stereo not shown) [[^99mTc]Tc-BQ0500, metal not drawn] the “Log D (octanol–water distribution coefficient)” value [1] was −2.5 ± 0.1, the “B max1 (binding maximum)” value ([2]; 5 nM tracer, 1:2 model (1:1 for BQ0413)) was 881 CPS and the “B max2 (binding maximum)” value ([2]; 5 nM tracer, 1:2 model, second interaction) was 40 CPS. For the same compound, the Kd ([2]; 5 nM tracer, 1:2 model, second interaction, read-out: K D2) was 0.052 nM, the “affinity compromised in comparison with [99mTc]Tc-BQ0413” value ([2]; PC3-pip cells) was 3–5 fold and the Kd ([2]; as rounded in comparison table, read-out: K D1) was 0.3 nM. For the same compound, the Kd ([2]; as rounded in comparison table, read-out: K D2) was 0.05 nM, the “intact tracer in PBS” value ([3]; PBS control, 37 °C, n = 3) was 99.0 ± 0.5% and the “intact tracer in murine serum” value ([3]; mouse, 5 µg/mL) was 99.7 ± 0.3%. For the same compound, the “maximum of internalized activity” value [4] was 42–43 % of cell-associated activity, the “activity uptake in intestines with content, higher compared to [99mTc]Tc-BQ0413” value ([5]; PC3-pip tumor-bearing mice, 5 nmol) was 5.3 fold and the activity in carcass [5, 7] was 7 ± 1 ^b %IA/sample. The “activity in intestines with content” value [5, 7] was 3.9 ± 0.4 ^b, ^c, ^d %IA/sample, the “activity uptake in blood” value [5, 7] was 1.1 ± 0.2 ^b %IA/g and the “activity uptake in bone” value [5, 7] was 0.5 ± 0.1 ^b, ^d %IA/g. The “activity uptake in kidney” value [5, 7] was 51 ± 3 ^b ^c %IA/g, the “activity uptake in liver” value [5, 7] was 0.9 ± 0.2 ^b %IA/g and the “activity uptake in lung” value [5, 7] was 1.3 ± 0.2 ^b %IA/g. The “activity uptake in muscle” value [5, 7] was 0.3 ± 0.1 ^b %IA/g, the “activity uptake in pancreas” value [5, 7] was 0.4 ± 0.1 ^b %IA/g and the “activity uptake in salivary gland” value [5, 7] was 0.7 ± 0.1 ^b ^, ^d %IA/g. For the same compound, the “activity uptake in small intestines” value [5, 7] was 0.6 ± 0.2 ^c %IA/g, the “activity uptake in spleen” value [5, 7] was 2.5 ± 0.2 ^b %IA/g and the “activity uptake in stomach” value [5, 7] was 0.47 ± 0.02 ^d %IA/g. The “activity uptake in tumor” value [5, 7] was 29 ± 3 %IA/g, the tumor-to-blood ratio [5, 7] was 28 ± 6 ^b and the tumor-to-bone ratio [5, 7] was 65 ± 15 ^b ^, ^d. For the same compound, the tumor-to-kidney ratio [5, 7] was 0.6 ± 0.1 ^b ^, ^c, the tumor-to-liver ratio [5, 7] was 32 ± 7 ^b and the tumor-to-lung ratio [5, 7] was 23 ± 4 ^b. The tumor-to-muscle ratio [5, 7] was 101 ± 28 ^b, the tumor-to-pancreas ratio [5, 7] was 69 ± 13 and the tumor-to-salivary gland ratio [5, 7] was 42 ± 8 ^b ^, ^d. The tumor-to-small intestines ratio [5, 7] was 51 ± 20, the tumor-to-spleen ratio [5, 7] was 12 ± 2 ^b and the tumor-to-stomach ratio [5, 7] was 61 ± 7 ^d. For the same compound, the activity in carcass [5, 8] was 4 ± 1 ^d %IA/sample, the “activity in intestines with content” value [5, 8] was 5.4 ± 0.3 ^c, ^d %IA/sample and the “activity uptake in blood” value [5, 8] was 0.3 ± 0.1 ^c ^, ^d %IA/g. The “activity uptake in bone” value [5, 8] was 0.10 ± 0.02 %IA/g, the “activity uptake in kidney” value [5, 8] was 33 ± 3 ^c, ^d %IA/g and the “activity uptake in liver” value [5, 8] was 0.4 ± 0.1 ^c %IA/g. The “activity uptake in lung” value [5, 8] was 0.4 ± 0.1 ^c %IA/g, the “activity uptake in muscle” value [5, 8] was 0.10 ± 0.03 %IA/g and the “activity uptake in pancreas” value [5, 8] was 0.3 ± 0.2 %IA/g. For the same compound, the “activity uptake in salivary gland” value [5, 8] was 0.2 ± 0.1 ^d %IA/g, the “activity uptake in small intestines” value [5, 8] was 0.4 ± 0.2 %IA/g and the “activity uptake in spleen” value [5, 8] was 1.4 ± 0.3 ^c %IA/g. For the same compound, the “activity uptake in stomach” value [5, 8] was 1.6 ± 1.2 ^c %IA/g, the tumor-to-bone ratio [5, 8] was 341 ± 100 ^d and the tumor-to-kidney ratio [5, 8] was 1.0 ± 0.2 ^c. For the same compound, the tumor-to-liver ratio [5, 8] was 79 ± 22 ^c, the tumor-to-lung ratio [5, 8] was 71 ± 15 ^c and the tumor-to-muscle ratio [5, 8] was 332 ± 99. For the same compound, the tumor-to-pancreas ratio [5, 8] was 140 ± 82 ^c, the tumor-to-salivary gland ratio [5, 8] was 141 ± 42 and the tumor-to-small intestines ratio [5, 8] was 94 ± 38 ^c. For the same compound, the tumor-to-spleen ratio [5, 8] was 22 ± 5 ^c, the tumor-to-stomach ratio [5, 8] was 38 ± 39 ^c and the activity in carcass [5, 9] was 4±1 %IA/sample. For the same compound, the “activity in intestines with content” value [5, 9] was 5.4±0.3 %IA/sample, the “activity uptake in blood” value [5, 9] was 0.3±0.1 %IA/g and the “activity uptake in bone” value [5, 9] was 0.10±0.02 %IA/g. The “activity uptake in kidney” value [5, 9] was 33±3 %IA/g, the “activity uptake in liver” value [5, 9] was 0.4±0.1 %IA/g and the “activity uptake in lung” value [5, 9] was 0.4±0.1 %IA/g. For the same compound, the “activity uptake in muscle” value [5, 9] was 0.10±0.03 %IA/g, the “activity uptake in pancreas” value [5, 9] was 0.3±0.2 %IA/g and the “activity uptake in salivary gland” value [5, 9] was 0.2±0.1 %IA/g. For the same compound, the “activity uptake in small intestines” value [5, 9] was 0.4±0.2 %IA/g, the “activity uptake in spleen” value [5, 9] was 1.4±0.3 %IA/g and the “activity uptake in stomach” value [5, 9] was 1.6±1.2 %IA/g. The “activity uptake in tumor” value [5, 9] was 31±4 %IA/g, the excretion pathway ([5]; PC3-pip xenografts) was “predominantly renal” and the “activity uptake by PC3-pip cells” value ([6]; 2 nM tracer) was 71 ± 4 % of added activity. For the same compound, the “activity uptake by PC3-pip cells after presaturation with PSMA-11” value ([6]; 250-fold excess of nonlabeled PSMA-11, 2 nM tracer) was “significantly (p < 0.0001) decreased”.
